# Test results: DBAASP
# Tests used:
# Assay in all cases: ≥ marks a high value that may be exact or a test limit, other limits are often not marked, values filed in µg/mL are converted to µM
# [1] = tested on: Carnobacterium mobile
# [2] = tested on: Fusarium oxysporum
# [3] = tested on: Escherichia coli ATCC 25922
# [4] = tested on: Escherichia coli 170
# [5] = tested on: Pseudomonas aeruginosa 4677
# [6] = tested on: Acinetobacter baumannii
# [7] = tested on: Klebsiella pneumoniae 913
# [8] = tested on: Enterobacter cloacae 6780
# [9] = tested on: Enterobacter cloacae 2524
# [10] = tested on: Escherichia coli NIHJ JC-2
# [11] = tested on: Staphylococcus aureus FDA 209P
# [12] = tested on: Pseudomonas aeruginosa U-31
# [13] = tested on: Bacillus subtilis PCI 219
# [14] = tested on: Salmonella sp. CGMCC 1.1552
# [15] = tested on: Enterococcus faecalis CGMCC 1.125
# [16] = tested on: Lactiplantibacillus plantarum CGMCC 1.551
# [17] = tested on: Lactiplantibacillus plantarum CGMCC 1.124
# [18] = tested on: Staphylococcus aureus CGMCC 1.2386
# [19] = tested on: Staphylococcus aureus CGMCC 1.128
# [20] = tested on: Micrococcus luteus CGMCC 1.193
# [21] = tested on: Shigella dysenteriae ATCC 9753
# [22] = tested on: Lactococcus lactis ATCC 15577
# [23] = tested on: Lactiplantibacillus plantarum CGMCC 1.511
# [24] = tested on: Escherichia coli CGMCC 1.1580
# [25] = tested on: Listeria monocytogenes ATCC 7648
# [26] = tested on: Pseudomonas aeruginosa CGMCC 1.647
# [27] = tested on: Staphylococcus aureus CGMCC 1.879
# [28] = tested on: Bacillus subtilis CGMCC 1.1627
# [29] = tested on: Lactiplantibacillus plantarum CGMCC 1.11
# [30] = tested on: Lactiplantibacillus plantarum CGMCC 1.556
# [31] = tested on: Escherichia coli JM109
# [32] = tested on: Shigella flexneri CGMCC 1.1868
# [33] = tested on: Pseudomonas putida CGMCC 1.645
# [34] = tested on: Staphylococcus aureus ATCC 6538P
# [35] = tested on: Pseudomonas aeruginosa 3599
# [36] = tested on: Pseudomonas aeruginosa 5106
# [37] = tested on: Klebsiella pneumoniae 68228
# [38] = tested on: Enterobacter cloacae 6266
# [39] = tested on: Escherichia coli 5580
# [40] = tested on: Salmonella typhimurium
# [41] = tested on: Streptococcus pneumoniae ATCC 49619
# [42] = tested on: Klebsiella pneumoniae 1625
compound,measurement,setting,value
CSCC[C@H](N)C(=O)N[C@@H](C)C(=O)N[C@@H](CO)C(=O)N[C@@H](CCCN=C(N)N)C(=O)N[C@@H](C)C(=O)N[C@@H](C)C(=O)N[C@@H](CCCN=C(N)N)C(=O)N[C@@H](CC(C)C)C(=O)N[C@@H](C)C(=O)N[C@@H](C)C(=O)N[C@@H](CCCN=C(N)N)C(=O)N[C@@H](CC(C)C)C(=O)N[C@@H](C)C(=O)N[C@@H](CCCN=C(N)N)C(=O)N[C@@H](CC(C)C)C(=O)N[C@@H](C)C(=O)N[C@@H](CC(C)C)C(=O)N[C@@H](CCCN=C(N)N)C(=O)N[C@@H](C)C(=O)N[C@@H](CC(C)C)C(=O)O [MASRAARLAARLARLALRAL],MIC,[1],0.0025 µM
same,MIC,[2],0.1 µM
CC(C)C[C@H](NC(=O)[C@H](CCCCN)NC(=O)[C@H](CCC(N)=O)NC(=O)[C@@H](NC(=O)[C@@H](NC(=O)[C@H](CC(N)=O)NC(=O)[C@H](C)NC(=O)[C@@H](NC(=O)[C@@H](N)CCCCN)C(C)C)[C@@H](C)O)C(C)C)C(=O)N[C@@H](CCCCN)C(=O)N[C@@H](CCCN=C(N)N)C(=O)N[C@@H](CCCCN)C(=O)N[C@@H](C)C(=O)N[C@@H](CCCCN)C(=O)N[C@@H](CC(N)=O)C(=O)N[C@@H](C)C(=O)N[C@H](C(=O)O)C(C)C [KVANTVQKLKRKAKNAV],MIC,[3],> 50 µM
same,MIC,[4],≥ 50 µM
same,MIC,[5],≥ 50 µM
same,MIC,[6],≥ 50 µM
same,MIC,[7],≥ 50 µM
same,MIC,[8],≥ 50 µM
same,MIC,[9],25 µM
CC(C)C[C@H](NC(=O)[C@H](CCCCN)NC(=O)[C@H](CCCCN)NC(=O)[C@H](CC(C)C)NC(=O)[C@H](CC(C)C)NC(=O)[C@H](CCCCN)NC(=O)[C@H](CCCCN)NC(=O)[C@H](Cc1c[nH]c2ccccc12)NC(=O)[C@H](CCCCN)NC(=O)[C@H](CCCCN)NC(=O)[C@H](CC(C)C)NC(=O)[C@H](CC(C)C)NC(=O)[C@H](CCCCN)NC(=O)[C@H](CCCCN)NC(=O)[C@H](CC(C)C)NC(=O)[C@H](CCCCN)NC(=O)[C@@H](N)CCCCN)C(=O)N[C@@H](CCCCN)C(=O)O [KKLKKLLKKWKKLLKKLK],MIC,[10],≥ 43.6 µM
same,MIC,[11],≥ 43.6 µM
same,MIC,[12],≥ 43.6 µM
same,MIC,[13],≥ 43.6 µM
CC[C@H](C)[C@H](NC(=O)[C@H](CC(C)C)NC(=O)[C@H](Cc1ccccc1)NC(=O)[C@H](CCC(N)=O)NC(=O)[C@H](CCC(N)=O)NC(=O)[C@H](CCCCN)NC(=O)[C@@H](NC(=O)[C@@H](N)CCCCN)[C@@H](C)O)C(=O)N[C@@H](CCCCN)C(=O)N[C@@H](C)C(=O)N[C@@H](CCC(N)=O)C(=O)N[C@H](C(=O)N[C@@H](CCC(N)=O)C(=O)N[C@@H](CC(C)C)C(=O)N[C@@H](Cc1ccccc1)C(=O)N[C@@H](CCCCN)C(=O)N[C@H](C(=O)N[C@@H](Cc1ccccc1)C(=O)NCC(=O)N[C@@H](Cc1ccc(O)cc1)C(=O)N[C@H](C(=O)N[C@@H](CC(C)C)C(=O)O)[C@@H](C)O)C(C)C)[C@@H](C)O [KTKQQFLIKAQTQLFKVFGYTL],MIC,[14],0.136 µM
same,MIC,[15],0.146 µM
same,MIC,[16],0.722 µM
same,MIC,[17],0.242 µM
same,MIC,[18],0.21 µM
same,MIC,[19],0.218 µM
same,MIC,[20],0.153 µM
same,MIC,[21],0.185 µM
same,MIC,[22],1.23 µM
same,MIC,[23],1.35 µM
same,MIC,[24],0.235 µM
same,MIC,[25],0.112 µM
same,MIC,[26],0.144 µM
same,MIC,[27],0.132 µM
same,MIC,[28],0.121 µM
same,MIC,[29],0.885 µM
same,MIC,[30],0.682 µM
same,MIC,[31],0.135 µM
same,MIC,[32],0.135 µM
same,MIC,[33],0.075 µM
same,MIC,[34],0.178 µM
CC[C@H](C)[C@H](NC(=O)CN)C(=O)N[C@@H](CC(C)C)C(=O)N[C@@H](CCCCN)C(=O)N[C@H](C(=O)N[C@H](C(=O)N[C@@H](CCCCN)C(=O)N[C@@H](CO)C(=O)N[C@H](C(=O)N[C@@H](C)C(=O)N[C@@H](CO)C(=O)N[C@@H](CCCCN)C(=O)N[C@H](C(=O)N[C@@H](C)C(=O)N[C@@H](CC(N)=O)C(=O)N[C@H](C(=O)N[C@H](C(=O)N[C@@H](CCC(N)=O)C(=O)N[C@@H](CCCCN)C(=O)N[C@@H](CC(C)C)C(=O)N[C@@H](CCCCN)C(=O)N[C@@H](CCCN=C(N)N)C(=O)N[C@@H](CCCCN)C(=O)N[C@@H](C)C(=O)N[C@@H](CCCCN)C(=O)N[C@@H](CC(N)=O)C(=O)N[C@@H](C)C(=O)N[C@H](C(=O)N[C@@H](C)C(=O)O)C(C)C)C(C)C)[C@@H](C)O)C(C)C)[C@@H](C)CC)[C@@H](C)CC)[C@@H](C)O [GILKTIKSIASKVANTVQKLKRKAKNAVA],MIC,[35],≥ 50 µM
same,MIC,[3],1.6 µM
same,MIC,[36],12 µM
same,MIC,[37],6.2 µM
same,MIC,[4],3.1 µM
same,MIC,[5],25 µM
same,MIC,[38],3.1 µM
same,MIC,[6],3.1 µM
same,MIC,[7],3.1 µM
same,MIC,[39],1.6 µM
same,MIC,[40],3.15 µM
same,MIC,[41],25 µM
same,MIC,[9],6.2 µM
same,MIC,[42],1.6 µM
